PubChem BioAssay (NCI)
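Results reflect a 48-hour exposure of cells in 96-well plates to compound at five concentrations. The concentration for 50% growth inhibition is given as GI50. TGI: concentration producing complete growth inhibition.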

Assays:
Assay in all cases: growth of human tumour cells (NCI), 48 h
NCI-H226 lung = test system: NCI-H226 lung
NCI-H23 lung = test system: NCI-H23 lung
NCI-H460 lung = test system: NCI-H460 lung
NCI-H522 lung = test system: NCI-H522 lung
NCI/ADR-RES ovarian = test system: NCI/ADR-RES ovarian
OVCAR-3 ovarian = test system: OVCAR-3 ovarian
OVCAR-4 ovarian = test system: OVCAR-4 ovarian
OVCAR-5 ovarian = test system: OVCAR-5 ovarian
OVCAR-8 ovarian = test system: OVCAR-8 ovarian
PC-3 prostate = test system: PC-3 prostate
RPMI-8226 leukemia = test system: RPMI-8226 leukemia
RXF 393 renal = test system: RXF 393 renal
SF-268 CNS = test system: SF-268 CNS
SF-295 CNS = test system: SF-295 CNS
SF-539 CNS = test system: SF-539 CNS
SK-MEL-2 melanoma = test system: SK-MEL-2 melanoma
SK-MEL-28 melanoma = test system: SK-MEL-28 melanoma
SK-MEL-5 melanoma = test system: SK-MEL-5 melanoma
SK-OV-3 ovarian = test system: SK-OV-3 ovarian
SN12C renal = test system: SN12C renal
SNB-19 CNS = test system: SNB-19 CNS
SNB-75 CNS = test system: SNB-75 CNS
SR leukemia = test system: SR leukemia
SW-620 colon = test system: SW-620 colon
T-47D breast = test system: T-47D breast
TK-10 renal = test system: TK-10 renal
U251 CNS = test system: U251 CNS
UACC-257 melanoma = test system: UACC-257 melanoma
UACC-62 melanoma = test system: UACC-62 melanoma
UO-31 renal = test system: UO-31 renal

COP(=O)(CC(F)(F)C(F)(F)F)OC
TGI (NCI-H226 lung): 73.1 µM
GI50 (NCI-H23 lung): 7.36 µM
TGI (NCI-H23 lung): 21.4 µM
GI50 (NCI-H460 lung): 18 µM
TGI (NCI-H460 lung): 38.1 µM
GI50 (NCI-H522 lung): 1.48 µM
TGI (NCI-H522 lung): 3.02 µM
GI50 (NCI/ADR-RES ovarian): 2.83 µM
TGI (NCI/ADR-RES ovarian): 10.2 µM
GI50 (OVCAR-3 ovarian): 3.44 µM
TGI (OVCAR-3 ovarian): 12.1 µM
GI50 (OVCAR-4 ovarian): 14 µM
TGI (OVCAR-4 ovarian): 30 µM
GI50 (OVCAR-5 ovarian): 17.5 µM
TGI (OVCAR-5 ovarian): 32.2 µM
GI50 (OVCAR-8 ovarian): 17.2 µM
TGI (OVCAR-8 ovarian): 84.2 µM
GI50 (PC-3 prostate): 7.87 µM
TGI (PC-3 prostate): 25.2 µM
GI50 (RPMI-8226 leukemia): 3.07 µM
TGI (RPMI-8226 leukemia): 8.49 µM
GI50 (RXF 393 renal): 1.33 µM
TGI (RXF 393 renal): 2.92 µM
GI50 (SF-268 CNS): 24.2 µM
TGI (SF-268 CNS): 64.2 µM
GI50 (SF-295 CNS): 16.5 µM
TGI (SF-295 CNS): 31.8 µM
GI50 (SF-539 CNS): 2.55 µM
TGI (SF-539 CNS): 7.21 µM
GI50 (SK-MEL-2 melanoma): 16.3 µM
TGI (SK-MEL-2 melanoma): 38.4 µM
GI50 (SK-MEL-28 melanoma): 1.87 µM
TGI (SK-MEL-28 melanoma): 3.89 µM
GI50 (SK-MEL-5 melanoma): 5.98 µM
TGI (SK-MEL-5 melanoma): 19.2 µM
GI50 (SK-OV-3 ovarian): 30.1 µM
TGI (SK-OV-3 ovarian): 76.1 µM
GI50 (SN12C renal): 18.5 µM
TGI (SN12C renal): 37.5 µM
GI50 (SNB-19 CNS): 24.8 µM
TGI (SNB-19 CNS): 77 µM
GI50 (SNB-75 CNS): 4.93 µM
TGI (SNB-75 CNS): 55.3 µM
GI50 (SR leukemia): 3.15 µM
TGI (SR leukemia): 12.2 µM
GI50 (SW-620 colon): 2.04 µM
TGI (SW-620 colon): 4.2 µM
GI50 (T-47D breast): 2.36 µM
TGI (T-47D breast): 7.99 µM
GI50 (TK-10 renal): 3.08 µM
TGI (TK-10 renal): 7.36 µM
GI50 (U251 CNS): 17.6 µM
TGI (U251 CNS): 38 µM
GI50 (UACC-257 melanoma): 1.94 µM
TGI (UACC-257 melanoma): 5.83 µM
GI50 (UACC-62 melanoma): 4.95 µM
TGI (UACC-62 melanoma): 18 µM
GI50 (UO-31 renal): 1.71 µM
TGI (UO-31 renal): 3.64 µM
